Test results reported in article PMC10982501, “Synthesis and biological evaluation of novel benzothiazole derivatives as potential anticancer and antiinflammatory agents” (Frontiers in Chemistry, 2024).

System: not listed separately
Assay: Oil-water partition coefficient (log P) measurement
Type: physicochemical
Settings: n-octanol/water, room temperature
Experimental: The partition coefficient between n-octanol and water (log Po/w) is the classical descriptor for Lipophilicity ([Daina et al., 2017]). The test methodology followed previously published protocols ([Wang et al., 2021]). At room temperature, two large Erlenmeyer flasks were taken and filled with n-octanol and water, respectively. The flasks were placed in a constant temperature shaker at 150 rpm for 24 h to saturate the solvents. The mixtures were then transferred to separating funnels under normal pressure to obtain water-saturated n-octanol and n-octanol-saturated water for subsequent use. The target compound (2 mg) was accurately weighed and placed in a 2 mL brown volumetric flask. Anhydrous methanol was added to ultrasonically dissolve the compound, and the mixture was diluted to volume and thoroughly shaken to prepare a 1 mg/mL stock solution. The stock solution was further diluted to obtain 1, 1.5, 2, 2.5, 5 and 10 μg/mL reference solutions for construction of a standard curve using a UV-visible spectrophotometer. An excess amount of the analyte was dissolved in water-saturated n-octanol, and the mixture was shaken at 150 rpm for 24 h at constant temperature to obtain a saturated solution. The saturated solution was allowed to stand, centrifuged, and 1 mL of the supernatant was transferred to a 4 mL centrifuge tube. N-octanol saturated water (1 mL) was added, and the mixture was shaken at 150 rpm for 24 h at constant temperature. After standing for 8 h, the mixture was centrifuged. Appropriate amounts of the n-octanol phase before and after equilibration were diluted with methanol, and concentrations were determined from the standard curve to obtain C0 and C1. The concentration in the n-octanol saturated aqueous phase, Cw, was calculated as Cw = C0 - C1. Thus, log Po/w = […].

In order of falling logP:
1. Cc1ccc(COc2ccccc2-c2nc3ccccc3s2)cc1 [A6, 2-(2-((4-methylbenzyl)oxy)phenyl)benzo[d]thiazole]  4.72 ± 0.28
2. Clc1cccc(COc2ccccc2-c2nc3ccccc3s2)c1 [A5, 2-(2-((3-chlorobenzyl)oxy)phenyl)benzo[d]thiazol]  4.51 ± 0.24
3. Fc1ccc2nc(NCc3c(Cl)cccc3Cl)sc2c1 [B2, N-(2,6-dichlorobenzyl)-6-fluorobenzo[d]thiazol-2-amine]  4.25 ± 0.16
4. c1ccc(COc2ccccc2-c2nc3ccccc3s2)cc1 [A7, 2-(2-(benzyloxy)phenyl)benzo[d]thiazole]  3.95 ± 0.15
5. O=[N+]([O-])c1ccc(COc2ccccc2-c2nc3ccccc3s2)cc1 [A4, 2-(2-((4-nitrobenzyl)oxy)phenyl)benzo[d]thiazole]  3.74 ± 0.35
6. O=C1c2ccccc2C(=O)N1CCCOc1ccccc1-c1nc2ccccc2s1 [A3, 2-(3-(2-(benzo[d]thiazol-2-yl)phenoxy)propyl)isoindoline-1,3-dione]  3.63 ± 0.16
7. O=[N+]([O-])c1ccccc1COc1ccccc1-c1nc2ccccc2s1 [A2, 2-(2-((2-nitrobenzyl)oxy)phenyl)benzo[d]thiazole]  3.51 ± 0.19
8. Fc1ccc2nc(NCCc3ccccc3)sc2c1 [B1, 6-fluoro-N-phenethylbenzo[d]thiazol-2-amine]  3.47 ± 0.27
9. N#Cc1ccc(COc2ccccc2-c2nc3ccccc3s2)cc1 [A8, 4-((2-(benzo[d]thiazol-2-yl)phenoxy)methyl)benzonitrile]  3.44 ± 0.22
10. O=[N+]([O-])c1ccc(CNc2nc3ccc(F)cc3s2)cc1 [B4, 6-fluoro-N-(4-nitrobenzyl)benzo[d]thiazol-2-amine]  2.67 ± 0.25
11. COc1ccc(CNc2nc3ccc(F)cc3s2)cc1OC [B3, N-(3,4-dimethoxybenzyl)-6-fluorobenzo[d]thiazol-2-amine]  2.56 ± 0.12

System: A431 cells
Assay: MTT cell proliferation assay, A431
Type: cell-based, human
Settings: Homo sapiens, A-431, 48 h, 10 μM, read-out: A431 cells inhibition rate
Experimental: (§1) Beas-2b, A431, A549 and H1299 cells were cultured in 96-well plates (5 × 10^3 cells/well) for 16 h, respectively. Subsequently, positive compound 4i and 25 newly synthesized compounds were added at a final concentration of 10 μM or gradient concentrations (0.01, 0.1, 0.5, 1, 5 and 10 μM), co-incubated with the cells for 48 h. MTT (M8180, Solarbio) solutions (5 mg/mL) were then added and incubated for 4 h in the dark. Then, formazan crystals were dissolved with DMSO (D8371, Solarbio), followed by shaking on a shaker (DRAGONLAB, China) for 10 min. Finally, absorbance at 490 nm wavelength for each well was measured with Microplate reader (Molecular Devices, United States) ([Tang et al., 2020]; [Lee et al., 2021]). The results are expressed as mean ± SD from three independent experiments. Cells inhibition rates or IC50 values were calculated using GraphPad Prism 9.5.0.

In order of rising inhibition at 10 µM:
1. c1ccc(COc2ccccc2-c2nc3ccccc3s2)cc1 [A7, 2-(2-(benzyloxy)phenyl)benzo[d]thiazole]  15.3 ± 2.21%
2. Fc1ccc2nc(NCCc3ccccc3)sc2c1 [B1, 6-fluoro-N-phenethylbenzo[d]thiazol-2-amine]  21.1 ± 2.03%
3. O=[N+]([O-])c1ccc(CNc2nc3ccc(F)cc3s2)cc1 [B4, 6-fluoro-N-(4-nitrobenzyl)benzo[d]thiazol-2-amine]  24.3 ± 1.87%
4. Fc1ccc2nc(NCc3c(Cl)cccc3Cl)sc2c1 [B2, N-(2,6-dichlorobenzyl)-6-fluorobenzo[d]thiazol-2-amine]  27.5 ± 2.42%
5. Cc1ccc(COc2ccccc2-c2nc3ccccc3s2)cc1 [A6, 2-(2-((4-methylbenzyl)oxy)phenyl)benzo[d]thiazole]  27.7 ± 1.62%
6. N#Cc1ccc(COc2ccccc2-c2nc3ccccc3s2)cc1 [A8, 4-((2-(benzo[d]thiazol-2-yl)phenoxy)methyl)benzonitrile]  28.6 ± 1.24%
7. COc1ccc(CNc2nc3ccc(F)cc3s2)cc1OC [B3, N-(3,4-dimethoxybenzyl)-6-fluorobenzo[d]thiazol-2-amine]  32.4 ± 2.92%
8. O=C1c2ccccc2C(=O)N1CCCOc1ccccc1-c1nc2ccccc2s1 [A3, 2-(3-(2-(benzo[d]thiazol-2-yl)phenoxy)propyl)isoindoline-1,3-dione]  34.2 ± 1.15%
9. O=[N+]([O-])c1ccccc1COc1ccccc1-c1nc2ccccc2s1 [A2, 2-(2-((2-nitrobenzyl)oxy)phenyl)benzo[d]thiazole]  35.8 ± 2.03%
10. O=[N+]([O-])c1ccc(COc2ccccc2-c2nc3ccccc3s2)cc1 [A4, 2-(2-((4-nitrobenzyl)oxy)phenyl)benzo[d]thiazole]  35.8 ± 1.02%
11. Clc1cccc(COc2ccccc2-c2nc3ccccc3s2)c1 [A5, 2-(2-((3-chlorobenzyl)oxy)phenyl)benzo[d]thiazol]  45.7 ± 0.87%

System: A549 cells
Assay: MTT cell proliferation assay, A549
Type: cell-based, human
Settings: Homo sapiens, A549, 48 h, 10 μM, read-out: A549 cells inhibition rate
Experimental: as §1

In order of rising inhibition at 10 µM:
1. c1ccc(COc2ccccc2-c2nc3ccccc3s2)cc1 [A7, 2-(2-(benzyloxy)phenyl)benzo[d]thiazole]  12.2 ± 3.42%
2. Fc1ccc2nc(NCCc3ccccc3)sc2c1 [B1, 6-fluoro-N-phenethylbenzo[d]thiazol-2-amine]  18.3 ± 0.93%
3. O=[N+]([O-])c1ccc(CNc2nc3ccc(F)cc3s2)cc1 [B4, 6-fluoro-N-(4-nitrobenzyl)benzo[d]thiazol-2-amine]  19.6 ± 1.32%
4. Cc1ccc(COc2ccccc2-c2nc3ccccc3s2)cc1 [A6, 2-(2-((4-methylbenzyl)oxy)phenyl)benzo[d]thiazole]  20.7 ± 2.31%
5. COc1ccc(CNc2nc3ccc(F)cc3s2)cc1OC [B3, N-(3,4-dimethoxybenzyl)-6-fluorobenzo[d]thiazol-2-amine]  22.4 ± 1.34%
6. N#Cc1ccc(COc2ccccc2-c2nc3ccccc3s2)cc1 [A8, 4-((2-(benzo[d]thiazol-2-yl)phenoxy)methyl)benzonitrile]  24.4 ± 1.22%
7. O=C1c2ccccc2C(=O)N1CCCOc1ccccc1-c1nc2ccccc2s1 [A3, 2-(3-(2-(benzo[d]thiazol-2-yl)phenoxy)propyl)isoindoline-1,3-dione]  28.5 ± 2.21%
8. Fc1ccc2nc(NCc3c(Cl)cccc3Cl)sc2c1 [B2, N-(2,6-dichlorobenzyl)-6-fluorobenzo[d]thiazol-2-amine]  30.2 ± 2.13%
9. O=[N+]([O-])c1ccccc1COc1ccccc1-c1nc2ccccc2s1 [A2, 2-(2-((2-nitrobenzyl)oxy)phenyl)benzo[d]thiazole]  33.1 ± 2.34%
10. O=[N+]([O-])c1ccc(COc2ccccc2-c2nc3ccccc3s2)cc1 [A4, 2-(2-((4-nitrobenzyl)oxy)phenyl)benzo[d]thiazole]  33.3 ± 1.36%
11. Clc1cccc(COc2ccccc2-c2nc3ccccc3s2)c1 [A5, 2-(2-((3-chlorobenzyl)oxy)phenyl)benzo[d]thiazol]  47.6 ± 1.24%

System: H1299 cells
Assay: MTT cell proliferation assay, H1299
Type: cell-based, human
Settings: Homo sapiens, NCI-H1299, 48 h, 10 μM, read-out: H1299 cells inhibition rate
Experimental: as §1

In order of falling inhibition at 10 µM:
1. COc1ccc(CNc2nc3ccc(F)cc3s2)cc1OC [B3, N-(3,4-dimethoxybenzyl)-6-fluorobenzo[d]thiazol-2-amine]  44.6 ± 1.75%
2. O=[N+]([O-])c1ccccc1COc1ccccc1-c1nc2ccccc2s1 [A2, 2-(2-((2-nitrobenzyl)oxy)phenyl)benzo[d]thiazole]  42.4 ± 1.26%
3. O=[N+]([O-])c1ccc(COc2ccccc2-c2nc3ccccc3s2)cc1 [A4, 2-(2-((4-nitrobenzyl)oxy)phenyl)benzo[d]thiazole]  39.4 ± 1.2%
4. N#Cc1ccc(COc2ccccc2-c2nc3ccccc3s2)cc1 [A8, 4-((2-(benzo[d]thiazol-2-yl)phenoxy)methyl)benzonitrile]  37.3 ± 2.3%
5. Clc1cccc(COc2ccccc2-c2nc3ccccc3s2)c1 [A5, 2-(2-((3-chlorobenzyl)oxy)phenyl)benzo[d]thiazol]  35.3 ± 2.24%
6. Cc1ccc(COc2ccccc2-c2nc3ccccc3s2)cc1 [A6, 2-(2-((4-methylbenzyl)oxy)phenyl)benzo[d]thiazole]  33.9 ± 0.68%
7. Fc1ccc2nc(NCc3c(Cl)cccc3Cl)sc2c1 [B2, N-(2,6-dichlorobenzyl)-6-fluorobenzo[d]thiazol-2-amine]  31.3 ± 1.14%
8. O=C1c2ccccc2C(=O)N1CCCOc1ccccc1-c1nc2ccccc2s1 [A3, 2-(3-(2-(benzo[d]thiazol-2-yl)phenoxy)propyl)isoindoline-1,3-dione]  30.9 ± 0.77%
9. c1ccc(COc2ccccc2-c2nc3ccccc3s2)cc1 [A7, 2-(2-(benzyloxy)phenyl)benzo[d]thiazole]  26.5 ± 1.11%
10. Fc1ccc2nc(NCCc3ccccc3)sc2c1 [B1, 6-fluoro-N-phenethylbenzo[d]thiazol-2-amine]  26.3 ± 0.91%
11. O=[N+]([O-])c1ccc(CNc2nc3ccc(F)cc3s2)cc1 [B4, 6-fluoro-N-(4-nitrobenzyl)benzo[d]thiazol-2-amine]  25 ± 1.62%

System: Beas-2b cells
Assay: MTT cell proliferation and toxicity assay, Beas-2b
Type: cell-based, human
Settings: Homo sapiens, BEAS-2B, 48 h, read-out: Beas-2b cells inhibition rate
Experimental: as §1

In order of falling inhibition at 10 µM:
1. COc1ccc(CNc2nc3ccc(F)cc3s2)cc1OC [B3, N-(3,4-dimethoxybenzyl)-6-fluorobenzo[d]thiazol-2-amine]  25.4 ± 2.01%
2. Fc1ccc2nc(NCCc3ccccc3)sc2c1 [B1, 6-fluoro-N-phenethylbenzo[d]thiazol-2-amine]  23.1 ± 1.52%
3. O=[N+]([O-])c1ccc(CNc2nc3ccc(F)cc3s2)cc1 [B4, 6-fluoro-N-(4-nitrobenzyl)benzo[d]thiazol-2-amine]  21.4 ± 2.21%
4. Fc1ccc2nc(NCc3c(Cl)cccc3Cl)sc2c1 [B2, N-(2,6-dichlorobenzyl)-6-fluorobenzo[d]thiazol-2-amine]  18.6 ± 1.67%
5. Clc1cccc(COc2ccccc2-c2nc3ccccc3s2)c1 [A5, 2-(2-((3-chlorobenzyl)oxy)phenyl)benzo[d]thiazol]  18.2 ± 2.23%
6. O=[N+]([O-])c1ccccc1COc1ccccc1-c1nc2ccccc2s1 [A2, 2-(2-((2-nitrobenzyl)oxy)phenyl)benzo[d]thiazole]  17.3 ± 3.26%
7. Cc1ccc(COc2ccccc2-c2nc3ccccc3s2)cc1 [A6, 2-(2-((4-methylbenzyl)oxy)phenyl)benzo[d]thiazole]  15.1 ± 3.28%
8. N#Cc1ccc(COc2ccccc2-c2nc3ccccc3s2)cc1 [A8, 4-((2-(benzo[d]thiazol-2-yl)phenoxy)methyl)benzonitrile]  14.2 ± 3.65%
9. c1ccc(COc2ccccc2-c2nc3ccccc3s2)cc1 [A7, 2-(2-(benzyloxy)phenyl)benzo[d]thiazole]  11.4 ± 2.65%
10. O=[N+]([O-])c1ccc(COc2ccccc2-c2nc3ccccc3s2)cc1 [A4, 2-(2-((4-nitrobenzyl)oxy)phenyl)benzo[d]thiazole]  10.3 ± 0.64%
11. O=C1c2ccccc2C(=O)N1CCCOc1ccccc1-c1nc2ccccc2s1 [A3, 2-(3-(2-(benzo[d]thiazol-2-yl)phenoxy)propyl)isoindoline-1,3-dione]  5.25 ± 0.39%
